Measurements taken from patent publication US20120065126A1, “Pharmaceutical Compositions Containing Antifungal Peptides” (BASF SE, priority 2009, published 2012).

Key:
M. furfur = test: Long-term stability of P18 in shampoo base formulations (CFU); assay type: cell-based, Malassezia furfur; conditions: formulations 31-1-10, 31-3-5, 31-3-2 stored at 40° C.; 0, 12 and 22 days
Protocol: The studies described hereinafter were conducted on the Malassezia furfur strain DSM 6170.
The long-term stability of P18 peptide (H-KWKLFKKIPKFLHLAKKF-NH2; carboxyl terminus amidated) in shampoo base formulations was tested.
The Texapon NSO and Tego Betain L7 components were mixed and dissolved. NaOH was used to adjust the pH to pH 6-7. Thereafter, a 100 mM aqueous solution of peptide P18 was prepared. The appropriate volume of the 100 mM P18 peptide solution was added to each of the formulations, such that the final concentrations of peptide P18 listed in Table 15 were obtained.
The formulations were stored at 40° C.
After 0; 12 and 22 days, the effect of the formulations on M. furfur was studied.
The growth test was effected as follows: a shake culture containing M472 Pityrosporum medium was inoculated with M. furfur and incubated with shaking at 30° C. and 200 rpm overnight.
A 96-well microtiter plate was filled with 100 μl per well of M472 Pityrosporum medium and inoculated with M. furfur suspension from the overnight culture. The M. furfur suspension was adjusted at the start of the experiment to an optical density, measured at 600 nm, of 0.1. […]
After 24 hours, the colony forming units (CFU) were determined. For this purpose, 1 μl and 10 μl of each of the suspensions were streaked and, after incubation over the course of 6 days, the colonies were counted.

[1] = system: E. coli (Stratagene, BLR); test: P18 in pharmaceutical base formulation (CFU); assay type: cell-based, Escherichia coli; conditions: mixed 1:9 with suspension
Protocol: The aim of the experiment was to study the effect of a pharmaceutical base formulation containing the P18 peptide ingredient (P18 sequence H-KWKLFKKIPKFLHLAKKF-NH2 (Bachem AG, Switzerland)). For this purpose, the following base formulation was used: […]
(§1) 1% hydroxycellulose 10% propylene glycol made up with water.
Based on the base formulation, formulations with rising P18 concentrations (500 ppm to 10 000 ppm) were prepared from a 20% concentrate solution.
The effect of the formulations on E. coli (Stratagene, BLR) was studied.
LB growth medium (Becton, Dickinson and Company, Sparks, USA) […] make up to 1 liter, set pH 7
The growth test was effected as follows: 5 ml of LB medium were inoculated with E. coli and incubated at 37° C. and 200 rpm overnight.
1.5 ml reaction vessels were each filled with 1 ml of LB medium and inoculated with the E. coli suspension from the overnight culture such that an optical density, measured at 600 nm, of 0.1 was obtained at the start of the experiment. The resulting E. coli suspension was mixed in a ratio of 1:9 (formulation: E. coli suspension) with the formulations. 1 μl of the culture was diluted with 20 μl of LB medium after 5 minutes, 10 minutes, 20 minutes and 60 minutes, and then plated out. After incubation over 24 hours, the colonies on the plates were counted.

[2] = system: S. epidermidis (DSM 1798); test: P18 in pharmaceutical base formulation (CFU); assay type: cell-based, Staphylococcus epidermidis; conditions: 10 000 ppm in the formulation, mixed 1:9 with suspension
Protocol: (§2) The aim of the experiment was to study the effect of a pharmaceutical base formulation containing the P18 peptide ingredient (P18 sequence H-KWKLFKKIPKFLHLAKKF-NH2 (Bachem AG, Switzerland)) on further fungi and bacteria. For this purpose, the following base formulation was used: […]
as §1
(§3) Based on the base formulation, formulations containing 10 000 ppm of P18 peptide were prepared from a 20% concentrate solution.
(§4) The effect of the formulations on S. epidermidis (DSM 1798), M. furfur (DSM 6170) and T. rubrum (DSM 21146) was studied.
TSBY growth medium for S. epidermidis Ready-made TSB medium (Becton, Dickinson and Company, Sparks, USA) 17 g of pancreatin-degraded casein 3 g of pancreatin-degraded soya 2.5 g of dextrose 5 g of sodium chloride 2.5 g of dipotassium phosphate 3 g of yeast extract (Becton, Dickinson and Company, Sparks, USA) make up to 1 liter, set pH 7 […]
(§5) 1.5 ml reaction vessels were each filled with 1 ml of medium and inoculated with the fungal or bacterial suspension from the overnight culture such that the resulting suspensions at the start of the experiment had been adjusted to an optical density, measured at 600 nm, of 0.1. […] After incubation over 24 hours, the colonies on the plates were counted.

M. furfur (DSM 6170) = test: P18 in pharmaceutical base formulation (CFU); assay type: cell-based, Malassezia furfur; conditions: for Colony forming units after the incubation time specified: 10 000 ppm in the formulation, mixed 1:9 with suspension
Protocol: as §2, §1, §3, §4
M472 growth medium according to DSMZ for M. furfur 40 g of malt extract (Becton, Dickinson and Company, Sparks, USA) 20 g of ox bile (Merck, Darmstadt, Germany)
For M. furfur, 5 ml of medium were inoculated with the microorganism and incubated at 30° C. and 200 rpm overnight.
1.5 ml reaction vessels were each filled with 1 ml of medium and inoculated with the fungal or bacterial suspension from the overnight culture such that the resulting suspensions at the start of the experiment had been adjusted to an optical density, measured at 600 nm, of 0.1. The resulting suspension was mixed with the formulations in a ratio of 1:9 (formulation: microbial suspension). 1 μl of the culture was diluted with 20 μl of medium after 5 minutes and 60 minutes and then plated out. After incubation over 24 hours, the colonies on the plates were counted.

T. rubrum (DSM 21146) = test: P18 in pharmaceutical base formulation (CFU); assay type: cell-based, Trichophyton rubrum; conditions: 10 000 ppm in the formulation, mixed 1:9 with suspension
Protocol: as §2, §1, §3, §4
MEP growth medium according to DSMZ for T. rubrum 30 g of malt extract (Becton, Dickinson and Company, Sparks, USA) 3 g of soya peptone (Becton, Dickinson and Company, Sparks, USA) make up to 1 liter, set pH 5.6.
For T. rubrum, an agar plate on which it had grown was rinsed with 5 ml of medium. 10 μl of the resulting suspension were added to 1 ml of MEP medium and used directly in the experiment.
as §5

With “H-KWKLFKKIPKFLHLAKKF-NH2 [P18, H-KWKLFKKIPKFLHLAKKF-NH2]” the “Long-term stability in shampoo base formulations” value (M. furfur) was “stable properties”, the “Colony forming units after the incubation time specified” value (“Colony forming units” below) ([1]; 10 000 ppm in the formulation, 5 minutes) was 1778 ± 314 CFU and the “Colony forming units” value ([1]; 10 000 ppm in the formulation, 10 minutes) was 901 ± 120 CFU. For the same substance, the “Colony forming units” value ([1]; 10 000 ppm in the formulation, 20 minutes) was 226 ± 286 CFU, the “Colony forming units” value ([1]; 10 000 ppm in the formulation, 60 minutes) was 7.75 ± 9.5 CFU and the “Colony forming units” value ([1]; 500 ppm in the formulation, 5 minutes) was 2000 ± 0 CFU. The “Colony forming units” value ([1]; 500 ppm in the formulation, 10 minutes) was 2000 ± 0 CFU, the “Colony forming units” value ([1]; 500 ppm in the formulation, 20 minutes) was 2000 ± 0 CFU and the “Colony forming units” value ([1]; 500 ppm in the formulation, 60 minutes) was 709 ± 451 CFU. For the same substance, the “Colony forming units” value ([1]; 1000 ppm in the formulation, 5 minutes) was 2000 ± 0 CFU, the “Colony forming units” value ([1]; 1000 ppm in the formulation, 10 minutes) was 2000 ± 0 CFU and the “Colony forming units” value ([1]; 1000 ppm in the formulation, 20 minutes) was 1619 ± 534 CFU. For the same substance, the “Colony forming units” value ([1]; 1000 ppm in the formulation, 60 minutes) was 332 ± 236 CFU, the “Colony forming units” value ([1]; 2000 ppm in the formulation, 5 minutes) was 2000 ± 0 CFU and the “Colony forming units” value ([1]; 2000 ppm in the formulation, 10 minutes) was 2000 ± 0 CFU. The “Colony forming units” value ([1]; 2000 ppm in the formulation, 20 minutes) was 733 ± 349 CFU, the “Colony forming units” value ([1]; 2000 ppm in the formulation, 60 minutes) was 93 ± 127 CFU and the “Colony forming units” value ([1]; 5000 ppm in the formulation, 5 minutes) was 2000 ± 0 CFU. The “Colony forming units” value ([1]; 5000 ppm in the formulation, 10 minutes) was 1225 ± 339 CFU, the “Colony forming units” value ([1]; 5000 ppm in the formulation, 20 minutes) was 411 ± 516 CFU and the “Colony forming units” value ([1]; 5000 ppm in the formulation, 60 minutes) was 29 ± 36 CFU. The “Colony forming units” value ([2]; 5 minutes) was 790 ± 393 CFU, the “Colony forming units” value ([2]; 60 minutes) was 513 ± 20 CFU and the “Colony forming units” value (M. furfur (DSM 6170); 5 minutes) was 671 ± 13 CFU. For the same substance, the “Colony forming units” value (M. furfur (DSM 6170); 60 minutes) was 2 ± 2 CFU, the “Reduction in the cell count” value (M. furfur (DSM 6170); treatment with a formulation which comprised P18, highest reduction of Example 22) was greater than 300 fold and the “Colony forming units” value (T. rubrum (DSM 21146); 5 minutes) was 25 ± 8 CFU. For the same substance, the “Colony forming units” value (T. rubrum (DSM 21146); 60 minutes) was 6 ± 1 CFU.
